pIC50: −log10 of the molar value. Read-outs that look alike come from different tables or passages of the source.
Target: T1, Alpha/beta hydrolase domain-containing 5 (ABHD5, CGI-58) (Mus musculus, UniProt Q9DBL9)
T1 construct: ABHD5 fused to C-terminal fragment of G. princeps luciferase
T1 sequence (Q9DBL9 1-351): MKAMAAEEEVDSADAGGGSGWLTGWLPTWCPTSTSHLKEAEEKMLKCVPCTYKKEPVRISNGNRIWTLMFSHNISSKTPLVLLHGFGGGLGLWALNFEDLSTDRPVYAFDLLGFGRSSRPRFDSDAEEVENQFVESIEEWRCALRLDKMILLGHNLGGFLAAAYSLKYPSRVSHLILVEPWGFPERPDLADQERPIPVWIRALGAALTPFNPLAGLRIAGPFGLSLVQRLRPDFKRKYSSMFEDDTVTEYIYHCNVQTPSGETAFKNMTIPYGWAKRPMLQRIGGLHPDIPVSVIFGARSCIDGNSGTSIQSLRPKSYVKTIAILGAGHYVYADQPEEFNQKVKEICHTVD
T1 sequence (Q8BVZ1 1-463 partner): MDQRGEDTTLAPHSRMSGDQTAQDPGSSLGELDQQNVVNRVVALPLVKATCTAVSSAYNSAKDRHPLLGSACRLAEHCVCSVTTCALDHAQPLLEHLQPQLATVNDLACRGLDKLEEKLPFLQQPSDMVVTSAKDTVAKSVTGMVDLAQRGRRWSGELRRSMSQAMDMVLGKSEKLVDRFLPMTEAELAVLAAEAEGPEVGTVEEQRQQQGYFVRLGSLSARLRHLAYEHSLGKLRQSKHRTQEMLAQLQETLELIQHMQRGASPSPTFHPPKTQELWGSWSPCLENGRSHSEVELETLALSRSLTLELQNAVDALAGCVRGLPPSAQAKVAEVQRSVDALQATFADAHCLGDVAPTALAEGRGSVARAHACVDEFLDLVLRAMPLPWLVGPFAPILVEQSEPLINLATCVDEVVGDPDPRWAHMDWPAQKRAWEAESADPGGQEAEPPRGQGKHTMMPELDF
Experiment: split luciferase complementation in cell lysates: ligand-induced dissociation of ABHD5-PLIN5
Format: biochemical

SMILES | pIC50 | pIC50 (read-out: IC50)
Cc1ccc2c(CC(=O)N3CCN(S(=O)(=O)c4ccc5c(c4)OCCO5)CC3)coc2c1 [SR4559, SR-01000604559] | 5.46 | 
O=C(Cc1cccc(F)c1)N1CCN(S(=O)(=O)c2ccc3c(c2)OCCO3)CC1 [SR3133, SR-03000003133] |  | 4.80
COc1ccc(CC(=O)N2CCN(S(=O)(=O)c3ccc4c(c3)OCCCO4)CC2)cc1 [SR3134, SR-03000003134] |  | 5.05

Source: paper PMC9274090, “Molecular Modeling of ABHD5 Structure and Ligand Recognition” (Frontiers in Molecular Biosciences, 2022)
